Assay results from patent US8557552B2, “Selective neuronal nitric oxide synthase inhibitors” (Northwestern University, priority 2011, dated 2013).

Key:
Assay type in all cases: biochemical
[1] = target: rat nNOS (Rattus norvegicus, UniProt P29476); experiment: NOS enzyme inhibition assay, nNOS; conditions: for Ki: rat nNOS
[2] = target: murine iNOS (Mus musculus, UniProt P29477); experiment: NOS enzyme inhibition assay, iNOS; conditions: for Selectivity n/i: ratio Ki iNOS to Ki nNOS
[3] = target: bovine eNOS (Bos taurus, UniProt P29473); experiment: NOS enzyme inhibition assay, eNOS; conditions: for Ki: bovine eNOS; for Selectivity n/e: ratio Ki eNOS to Ki nNOS
Chain of bovine eNOS (P29473 whole entry): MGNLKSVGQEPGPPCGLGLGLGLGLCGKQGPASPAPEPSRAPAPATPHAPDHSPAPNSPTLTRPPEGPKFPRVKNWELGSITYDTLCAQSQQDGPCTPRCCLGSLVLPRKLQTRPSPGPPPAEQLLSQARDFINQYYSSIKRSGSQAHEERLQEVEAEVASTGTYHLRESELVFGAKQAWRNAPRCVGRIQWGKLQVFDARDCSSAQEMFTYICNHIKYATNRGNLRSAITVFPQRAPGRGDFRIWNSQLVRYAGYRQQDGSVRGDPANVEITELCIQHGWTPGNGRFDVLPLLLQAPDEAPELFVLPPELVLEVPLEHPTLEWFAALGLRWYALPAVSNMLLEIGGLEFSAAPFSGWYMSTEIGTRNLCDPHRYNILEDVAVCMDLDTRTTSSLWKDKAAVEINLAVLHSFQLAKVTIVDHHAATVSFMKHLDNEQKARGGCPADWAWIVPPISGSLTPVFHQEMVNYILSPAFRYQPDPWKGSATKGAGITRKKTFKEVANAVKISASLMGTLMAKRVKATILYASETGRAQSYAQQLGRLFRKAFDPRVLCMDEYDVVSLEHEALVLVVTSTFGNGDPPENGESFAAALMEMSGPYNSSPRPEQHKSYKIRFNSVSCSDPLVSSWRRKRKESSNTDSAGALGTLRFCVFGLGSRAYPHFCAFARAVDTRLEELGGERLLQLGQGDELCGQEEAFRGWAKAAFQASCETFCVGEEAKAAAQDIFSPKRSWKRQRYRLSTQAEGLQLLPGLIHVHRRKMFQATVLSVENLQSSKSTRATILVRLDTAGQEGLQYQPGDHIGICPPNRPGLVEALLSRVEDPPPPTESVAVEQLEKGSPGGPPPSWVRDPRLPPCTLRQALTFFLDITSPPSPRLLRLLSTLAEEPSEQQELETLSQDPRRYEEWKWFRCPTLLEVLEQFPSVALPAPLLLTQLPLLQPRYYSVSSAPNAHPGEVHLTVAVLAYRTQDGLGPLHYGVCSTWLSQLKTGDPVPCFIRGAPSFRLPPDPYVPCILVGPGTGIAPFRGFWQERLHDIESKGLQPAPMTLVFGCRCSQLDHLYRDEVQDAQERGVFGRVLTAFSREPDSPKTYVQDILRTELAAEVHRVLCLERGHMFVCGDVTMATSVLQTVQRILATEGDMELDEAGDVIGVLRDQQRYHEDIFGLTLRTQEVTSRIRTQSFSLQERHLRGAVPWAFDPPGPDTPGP

[4] = KM 1.3 μM, Ki = IC50/(1 + [S]/KM), Table 2
[5] = murine iNOS, KM 8.2 μM, Ki = IC50/(1 + [S]/KM), Table 2
[6] = KM 1.7 μM, Ki = IC50/(1 + [S]/KM), Table 2

Chain of rat nNOS (P29476 whole entry): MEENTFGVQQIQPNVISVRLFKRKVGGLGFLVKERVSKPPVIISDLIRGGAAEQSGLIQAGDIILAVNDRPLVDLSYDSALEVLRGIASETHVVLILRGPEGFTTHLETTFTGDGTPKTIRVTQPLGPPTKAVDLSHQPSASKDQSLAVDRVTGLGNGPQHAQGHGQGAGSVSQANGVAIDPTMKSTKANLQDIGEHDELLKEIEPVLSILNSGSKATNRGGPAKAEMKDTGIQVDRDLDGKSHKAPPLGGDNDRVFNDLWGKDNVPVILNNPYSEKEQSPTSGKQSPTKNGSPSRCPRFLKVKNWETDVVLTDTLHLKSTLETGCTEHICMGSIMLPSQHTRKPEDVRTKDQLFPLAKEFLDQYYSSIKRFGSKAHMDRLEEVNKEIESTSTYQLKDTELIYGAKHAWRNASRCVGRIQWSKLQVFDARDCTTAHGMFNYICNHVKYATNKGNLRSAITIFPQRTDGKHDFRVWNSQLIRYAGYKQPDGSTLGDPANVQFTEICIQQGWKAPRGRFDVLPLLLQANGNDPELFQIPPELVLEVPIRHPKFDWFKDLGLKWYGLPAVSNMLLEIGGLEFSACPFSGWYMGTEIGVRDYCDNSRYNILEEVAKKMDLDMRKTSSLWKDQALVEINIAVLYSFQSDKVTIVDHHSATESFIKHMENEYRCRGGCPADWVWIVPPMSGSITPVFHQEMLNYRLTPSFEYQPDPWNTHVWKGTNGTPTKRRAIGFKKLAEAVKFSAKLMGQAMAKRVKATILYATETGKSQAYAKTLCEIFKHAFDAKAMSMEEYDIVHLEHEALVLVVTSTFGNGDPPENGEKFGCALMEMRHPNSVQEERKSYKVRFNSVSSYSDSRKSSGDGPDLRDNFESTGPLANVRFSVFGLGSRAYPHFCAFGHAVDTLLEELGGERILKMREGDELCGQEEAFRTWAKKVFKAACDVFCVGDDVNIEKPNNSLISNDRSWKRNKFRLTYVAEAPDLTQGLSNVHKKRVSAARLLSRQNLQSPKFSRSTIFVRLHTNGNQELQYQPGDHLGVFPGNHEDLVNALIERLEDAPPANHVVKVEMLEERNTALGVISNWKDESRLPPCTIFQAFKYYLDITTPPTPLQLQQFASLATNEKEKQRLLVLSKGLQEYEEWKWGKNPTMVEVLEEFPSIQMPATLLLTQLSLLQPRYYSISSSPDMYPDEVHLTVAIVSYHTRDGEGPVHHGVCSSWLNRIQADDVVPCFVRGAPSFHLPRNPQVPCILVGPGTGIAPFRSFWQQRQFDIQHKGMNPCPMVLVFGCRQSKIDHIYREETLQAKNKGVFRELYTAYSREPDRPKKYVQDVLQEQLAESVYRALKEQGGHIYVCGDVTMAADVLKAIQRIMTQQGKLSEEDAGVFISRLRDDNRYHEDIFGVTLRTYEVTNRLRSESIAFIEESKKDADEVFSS

SMILES	Ki ([1]; in vitro, Table 1) [µM]	Ki ([2]; in vitro, Table 1) [µM]	Selectivity n/i ([2]; Table 1)	Ki ([3]; in vitro, Table 1) [µM]	Selectivity n/e ([3]; Table 1)	Ki [1, 4] [µM]	n/i, ratio of Ki (iNOS) to nNOS ([2]; Table 2)	Ki [2, 5] [µM]	n/e, ratio of Ki (eNOS) to nNOS ([3]; Table 2)	Ki [3, 6] [µM]	nNOS potency compared with Ji19 ([1]; comment on Table 2)	nNOS selectivity over eNOS compared with Ji19 ([3]; comment on Table 2)
Cc1cc(N)nc(C[C@@H]2CNC[C@@H]2OCCCOc2ccc(F)c(C(F)(F)F)c2)c1 [25a]	2.49	14.6	5.8	5.06	2.0							
Cc1cc(N)nc(C[C@@H]2CNC[C@@H]2OCCCOc2ccc(F)c(Cl)c2)c1 [25b]	3.34	18.5	5.5	10.5	3.1							
Cc1cc(N)nc(C[C@@H]2CNC[C@@H]2OCCCOc2cc(F)cc(C(F)(F)F)c2)c1 [25c]	1.67	32.4	19.3	5	3.0							
Cc1cc(N)nc(C[C@@H]2CNC[C@@H]2OCCCOc2cc(F)cc(Cl)c2)c1 [25d]	0.453	41.1	90.6	9.02	19.9							
Cc1cc(N)nc(C[C@@H]2CNC[C@@H]2OCCCOc2cc(Cl)cc(C(F)(F)F)c2)c1 [25e]	0.931	25.6	27.5	1.38	1.5							
Cc1cc(N)nc(C[C@@H]2CNC[C@@H]2OCCCOc2cc(C(F)(F)F)cc(C(F)(F)F)c2)c1 [25f]	0.516	12.2	23.7	2.68	5.2							
Cc1cc(N)nc(C[C@@H]2CNC[C@@H]2OCCCCCc2cc(F)cc(Cl)c2)c1 [HH002, 6-(((3R,4R)-4-((5-(3-chloro-5-fluorophenyl)pentyl)oxy)pyrrolidin-3-yl)methyl)-4-methylpyridin-2-amine]						0.23	461	106	155	35.6		
Cc1cc(N)nc(C[C@@H]2CNC[C@@H]2OCCC/C=C/c2cccc(F)c2)c1 [HH003, 6-(((3R,4R)-4-(((E)-5-(3-fluorophenyl)pent-4-en-1-yl)oxy)pyrrolidin-3-yl)methyl)-4-methylpyridin-2-amine]						0.637	55	35.1	121	77		
Cc1cc(N)nc(C[C@H]2CNC[C@H]2OCCC/C=C/c2cccc(F)c2)c1.Cl.Cl [HH005]						15.4	9	134	4	69		
Cc1cc(N)nc(C[C@@H]2CNC[C@@H]2OCCCCCc2cccc(N)c2)c1 [HH008, 6-(((3R,4R)-4-((5-(3-aminophenyl)pentyl)oxy)pyrrolidin-3-yl)methyl)-4-methylpyridin-2-amine]							619		1117			
Cc1cc(N)nc(C[C@@H]2CNC[C@@H]2OCCCCOc2cc(F)cc(F)c2)c1.Cl.Cl [Ji22]						1.2	32	38.1	122	146		
COc1ccnc(/C=C/CCO[C@H]2CNC[C@H]2Cc2cc(C)cc(N)n2)c1 [compound 23]	0.351	2.48	7.1	2.22	6.3							

Now from value to compound:

Ki ([1]; in vitro, Table 1) [µM]	Ki ([2]; in vitro, Table 1) [µM]	Selectivity n/i ([2]; Table 1)	Ki ([3]; in vitro, Table 1) [µM]	Selectivity n/e ([3]; Table 1)	Ki [1, 4] [µM]	n/i, ratio of Ki (iNOS) to nNOS ([2]; Table 2)	Ki [2, 5] [µM]	n/e, ratio of Ki (eNOS) to nNOS ([3]; Table 2)	Ki [3, 6] [µM]	nNOS potency compared with Ji19 ([1]; comment on Table 2)	nNOS selectivity over eNOS compared with Ji19 ([3]; comment on Table 2)	SMILES
2.34	12.5	5.4	15.9	6.8								Cc1cc(N)nc(C[C@@H]2CNC[C@@H]2OCCCCc2ccccn2)c1 [22a]
1.08	17.9	16.5	25.5	23.6								Cc1ccnc(CCCCO[C@H]2CNC[C@H]2Cc2cc(C)cc(N)n2)c1 [22b]
0.174	5.44	31.3	5.47	31.5								COc1ccnc(CCCCO[C@H]2CNC[C@H]2Cc2cc(C)cc(N)n2)c1 [22c]
					0.922	91	83.8	37	33.8			Cc1cc(N)nc(C[C@@H]2CNC[C@@H]2OCCCCCc2cccc(F)c2)c1.Cl.Cl [HH001]
					9.06	52	468	4	34			Cc1cc(N)nc(C[C@H]2CNC[C@H]2OCCCCCc2cccc(F)c2)c1.Cl.Cl [HH004]
					0.009	54	0.491	154	1.39	higher nNOS potency	lower nNOS selectivity over eNOS	Cc1cc(N)nc(C[C@@H]2CNC[C@@H]2OCCCCNc2ccccn2)c1.Cl.Cl.Cl [Ji20]
					0.036	27	0.973	157	5.67			Cc1cc(N)nc(C[C@H]2CNC[C@H]2OCCCCNc2ccccn2)c1.Cl.Cl.Cl [Ji21]
					0.117	106	12.4	37	4.37			Cc1cc(N)nc(C[C@@H]2CNC[C@@H]2OCCCCOc2cc(F)cc(Cl)c2)c1.Cl.Cl [Ji23]
